{"source": "paper PMC7845594", "about": "“Novel Immune Modulators Enhance Caenorhabditis elegans Resistance to Multiple Pathogens” (mSphere, 2021)", "key": {"[1]": {"tested_on": "glp-4(bn2) worms exposed to methicillin-resistant S. aureus strain MRSA131", "assay": "S. aureus infection assay (liquid)", "assay_type": "in vivo, Caenorhabditis elegans", "conditions": "glp-4(bn2) worms, 96 h; ± 95% confidence interval", "method": "Enterococcus faecalis and Staphylococcus aureus are Gram-positive bacterial species frequently responsible for nosocomial infections ([24], [25]). These bacterial species readily infect C. elegans and liquid-based pathogenesis models have been developed for each ([26][–][28]). Sterile, young adult glp-4(bn2) worms were incubated with either E. faecalis or S. aureus and various concentrations of the five compounds. […] Importantly, P. aeruginosa, E. faecalis, and S. aureus use very different mechanisms to kill C. elegans (pyoverdine-mediated mitochondrial damage, gelatinase-mediated damage to the colonized intestine, and multi-toxin-mediated intestinal effacement and damage, respectively) ([29][–][33]). The ability of these compounds to rescue against multiple pathogens that utilize a diverse set of virulence factors and mechanisms of pathogenesis further supports the idea that at least a portion of these compounds’ activity is mediated by stimulating innate immunity.\nFIG 2 A subset of LK molecules rescue against E. faecalis and S. aureus. […] Compounds were serially diluted 2-fold, and young adult glp-4(bn2) worms were incubated with the pathogen for 80 h (E. faecalis) or 96 h (S. aureus). The concentrations shown are based on the mean value for at least three replicates. (B and C) Percentages of dead C. elegans after exposure to E. faecalis (B) or S. aureus (C). A representative biological replicate is shown. Each condition included at least six wells per replicate, each well contained approximately 20 worms. Three biological replicates were performed. *, P < 0.05; **, P < 0.01; ***, P < 0.001. P values were calculated using Student’s t test. Error bars represent the standard error of the mean.\nThe S. aureus killing assay was performed as previously described with some changes ([26]). A single colony was used to inoculate a 5-ml aerobic culture of TSB. The following day, 100 µl of this culture was used to inoculate a second 10 ml of TSB culture wrapped with parafilm. Then, 384-well plates were made containing 10% TSB, and S. aureus from the second culture was resuspended in S Basal medium to a final OD of 0.04. Compounds were then serially diluted in a DMSO-S Basal solution to achieve the desired concentration in the wells with a 1% DMSO final concentration for all compounds. After 5 days, the worms were transferred to new plates using a 0.05% Tween solution to prevent S. aureus biofilm background fluorescence from obscuring dead worms. Subsequent washing, staining, imaging, and image analysis were performed identically to Pseudomonas liquid killing. EC values were defined as the minimum concentration that provided statistically significant rescue. At least three biological replicates were performed."}, "[2]": {"tested_on": "glp-4(bn2) worms", "assay": "Longevity (life span) assay", "conditions": "50 μM in NGM, E. coli OP50, Fig 3A", "method": "To test the long-term toxicity of the hit compounds, life span assays were carried out by placing sterile, young adult glp-4(bn2) worms on NGM (standard nematode growth media, defined in Materials and Methods) seeded with Escherichia coli OP50. […] Sterile worms were used to eliminate the need to transfer worms between plates during life span assays, and we elected to use glp-4(bn2) to induce sterility instead of using wild-type worms sterilized with 5-fluoro-2′-deoxyuridine (FUDR) because the interaction of the compounds could generate artifacts during the long course of life span experiments.\nWorms were scored daily by prodding. […] The viability was normalized to a DMSO solvent control. […] Error bars represent standard error of the mean.\nWorms were picked onto agar plates seeded with 50 µl of concentrated E. coli OP50. Compounds were added to liquid agar before pouring plates. Worms were scored every day for death by prodding with a platinum wire. Worms that escaped the plate or died on the wall of the plate were censored. Each compound was tested in at least three biological replicates, each including 50 to 70 worms."}, "[3]": {"tested_on": "C. elegans host defense pathway genes", "assay": "nanoString expression of 115 immune- and stress-responsive genes", "conditions": "100 μM LK molecules, 16 h", "how_it_was_run": "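Wild-type young adult C. elegans (2,000 per condition) exposed to 100 μM LK molecules or DMSO control in S Basal medium for 16 h. RNA purified and expression of 115 immune- and stress-responsive genes quantified by nanoString; two biological replicates per condition.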"}}, "data": [{"smiles": "COC(=O)/C=C/C(=O)Nc1ccccc1", "note": "[LK32]", "values": [{"measurement": "S. aureus EC", "setting": "[1]", "result": "> 64", "unit": "µM"}, {"measurement": "TD50 (time to 50% death), life span", "setting": "[2]", "result": 8.8, "unit": "days"}, {"measurement": "B0024.4 expression, induction", "setting": "[3]", "result": 2.44, "unit": "fold"}, {"measurement": "C02B4.2 nhr-17 expression, induction", "setting": "[3]", "result": 5.68, "unit": "fold"}, {"measurement": "C06B3.7 expression, induction", "setting": "[3]", "result": 4.23, "unit": "fold"}, {"measurement": "C07G3.2 irg-1 expression, induction", "setting": "[3]", "result": 2.20, "unit": "fold"}, {"measurement": "C12C8.1 hsp-70 expression, induction", "setting": "[3]", "result": 3.77, "unit": "fold"}, {"measurement": "C15F1.7 sod-1 expression, induction", "setting": "[3]", "result": 4.46, "unit": "fold"}, {"measurement": "C29F7.2 expression, induction", "setting": "[3]", "result": 2.80, "unit": "fold"}, {"measurement": "C31A11.5 oac-6 expression, induction", "setting": "[3]", "result": 4.01, "unit": "fold"}, {"measurement": "C32D5.12 expression, induction", "setting": "[3]", "result": 3.70, "unit": "fold"}, {"measurement": "C32H11.1 expression, induction", "setting": "[3]", "result": 1.40, "unit": "fold"}, {"measurement": "C32H11.3 expression, induction", "setting": "[3]", "result": 2.32, "unit": "fold"}, {"measurement": "C34G6.4 pgp-2 expression, induction", "setting": "[3]", "result": 1.90, "unit": "fold"}, {"measurement": "C37C3.10 expression, induction", "setting": "[3]", "result": 4.08, "unit": "fold"}, {"measurement": "C37H5.8 hsp-6 expression, induction", "setting": "[3]", "result": 3.96, "unit": "fold"}, {"measurement": "C49G7.5 irg-2 expression, induction", "setting": "[3]", "result": 4.83, "unit": "fold"}, {"measurement": "F08F8.5 numr-1 expression, induction", "setting": "[3]", "result": 8.48, "unit": "fold"}, {"measurement": "F08H9.4 expression, induction", "setting": "[3]", "result": 1.80, "unit": "fold"}, {"measurement": "F14F9.3 expression, induction", "setting": "[3]", "result": 4.80, "unit": "fold"}, {"measurement": "F22B5.4 expression, induction", "setting": "[3]", "result": 3.08, "unit": "fold"}, {"measurement": "F22H10.2 expression, induction", "setting": "[3]", "result": 3.76, "unit": "fold"}, {"measurement": "F26A3.4 expression, induction", "setting": "[3]", "result": 4.23, "unit": "fold"}, {"measurement": "F35E8.11 cdr-1 expression, induction", "setting": "[3]", "result": 3.13, "unit": "fold"}, {"measurement": "F35G2.4 phy-2 expression, induction", "setting": "[3]", "result": 4.53, "unit": "fold"}, {"measurement": "F37B12.2 gcs-1 expression, induction", "setting": "[3]", "result": 7.02, "unit": "fold"}, {"measurement": "F43E2.8 hsp-4 expression, induction", "setting": "[3]", "result": 2.75, "unit": "fold"}, {"measurement": "F44E5.5 expression, induction", "setting": "[3]", "result": 3.34, "unit": "fold"}, {"measurement": "F49F1.6 expression, induction", "setting": "[3]", "result": 2.28, "unit": "fold"}, {"measurement": "F49F1.7 expression, induction", "setting": "[3]", "result": 2.35, "unit": "fold"}, {"measurement": "F49H6.13 expression, induction", "setting": "[3]", "result": 6.69, "unit": "fold"}, {"measurement": "F54B8.4 expression, induction", "setting": "[3]", "result": 2.74, "unit": "fold"}, {"measurement": "F55G11.2 expression, induction", "setting": "[3]", "result": 3.21, "unit": "fold"}, {"measurement": "F59A7.1 clec-206 expression, induction", "setting": "[3]", "result": 3.26, "unit": "fold"}, {"measurement": "F59B10.4 expression, induction", "setting": "[3]", "result": 3.51, "unit": "fold"}, {"measurement": "H12D21.1 nspa-1 expression, induction", "setting": "[3]", "result": 52.37, "unit": "fold"}, {"measurement": "H23N18.1 ugt-13 expression, induction", "setting": "[3]", "result": 8.50, "unit": "fold"}, {"measurement": "H23N18.3 ugt-8 expression, induction", "setting": "[3]", "result": 18.61, "unit": "fold"}, {"measurement": "K05B2.4 expression, induction", "setting": "[3]", "result": 1.82, "unit": "fold"}, {"measurement": "K08F4.7 gst-4 expression, induction", "setting": "[3]", "result": 18.20, "unit": "fold"}, {"measurement": "K09A9.1 nipi-3 expression, induction", "setting": "[3]", "result": 4.75, "unit": "fold"}, {"measurement": "K10D11.2 expression, induction", "setting": "[3]", "result": 2.89, "unit": "fold"}, {"measurement": "K10G4.3 expression, induction", "setting": "[3]", "result": 2.75, "unit": "fold"}, {"measurement": "R03D7.6 gst-5 expression, induction", "setting": "[3]", "result": 46.52, "unit": "fold"}, {"measurement": "R08H2.1 dhs-23 expression, induction", "setting": "[3]", "result": 2.72, "unit": "fold"}, {"measurement": "R10E8.3 expression, induction", "setting": "[3]", "result": 7.07, "unit": "fold"}, {"measurement": "T19D12.3 expression, induction", "setting": "[3]", "result": 9.28, "unit": "fold"}, {"measurement": "T19H12.1 ugt-9 expression, induction", "setting": "[3]", "result": 14.98, "unit": "fold"}, {"measurement": "T21E8.1 pgp-6 expression, induction", "setting": "[3]", "result": 2.05, "unit": "fold"}, {"measurement": "T22B7.3 expression, induction", "setting": "[3]", "result": 6.13, "unit": "fold"}, {"measurement": "T24C4.4 expression, induction", "setting": "[3]", "result": 3.75, "unit": "fold"}, {"measurement": "T24E12.5 expression, induction", "setting": "[3]", "result": 2.28, "unit": "fold"}, {"measurement": "T27E4.3 hsp-16.48 expression, induction", "setting": "[3]", "result": 5.22, "unit": "fold"}, {"measurement": "T27E4.8 hsp-16.1 expression, induction", "setting": "[3]", "result": 4.29, "unit": "fold"}, {"measurement": "T27F6.8 expression, induction", "setting": "[3]", "result": 5.12, "unit": "fold"}, {"measurement": "T28C12.4 expression, induction", "setting": "[3]", "result": 9.85, "unit": "fold"}, {"measurement": "W02D9.10 expression, induction", "setting": "[3]", "result": 4.35, "unit": "fold"}, {"measurement": "Y22D7AL.5 hsp-60 expression, induction", "setting": "[3]", "result": 4.03, "unit": "fold"}, {"measurement": "Y38E10A.15 nspe-7 expression, induction", "setting": "[3]", "result": 2.18, "unit": "fold"}, {"measurement": "Y46H3A.2 hsp-16.41 expression, induction", "setting": "[3]", "result": 4.09, "unit": "fold"}, {"measurement": "Y46H3A.3 hsp-16.2 expression, induction", "setting": "[3]", "result": 4.04, "unit": "fold"}, {"measurement": "Y56A3A.33 expression, induction", "setting": "[3]", "result": 4.81, "unit": "fold"}, {"measurement": "Y58A7A.5 expression, induction", "setting": "[3]", "result": 8.58, "unit": "fold"}, {"measurement": "ZC376.7 atfs-1 expression, induction", "setting": "[3]", "result": 5.61, "unit": "fold"}, {"measurement": "ZC443.6 ugt-16 expression, induction", "setting": "[3]", "result": 3.20, "unit": "fold"}, {"measurement": "ZK697.6 gst-21 expression, induction", "setting": "[3]", "result": 2.57, "unit": "fold"}]}]}
